According to patent US10925858B2, “S-nitrosoglutathione (GSNO) and GSNO reductase inhibitors for use in therapy” (MUSC FOUNDATION FOR RESEARCH DEVELOPMENT, priority 2017, dated 2021):

How the values were obtained:
[1] = test system: EAE mice; assay: EAE (MOG35-55) clinical disease, GSNO vs FeTPPS; assay type: in vivo, C57BL/6J mice; details: GSNO 1 mg/kg/i.p./day or FeTPPS 30 mg/kg/i.p./day from disease onset (day 13)
Experimental: EAE was induced as described previously (Nath et al., 2009). Animal procedures were approved by the institutional animal care and use committee of MUSC (AR #1644). Briefly, female C57BL/6J mice of 8-12 weeks of age weighing 18-22 g (The Jackson Laboratory, Bar Harbor, Me., USA) were randomly divided into four groups: 1) EAE animals treated with vehicle (EAE; n=8), 2) EAE with GSNO (1 mg/kg body weight per day; i.p.) treatment (EAE+GSNO; n=12), 3) EAE with FeTPPS (30 mg/kg body weight per day; i.p.) treatment (EAE+FeTPPS; n=8), 4) control with vehicle (Ctrl; n=8). The group size was determined by power analysis based on our previous data (Nadi et al., 2009). Then, the mice were immunized subcutaneously in the flank regions with MOG35-55 peptide (MOG; 200 ug; Peptide International) emulsified (1:1) in 100 ul complete Freund's adjuvant (CFA) CHI day 0 and day 7. […] Clinical signs of EAE were scored in animal facility in a blinded fashion to experimenter between 2 and 4 pm daily by examiners blinded to experimental treatments using the following scale: 0=no clinical signs of disease; 1=limp tail or waddling gait with tail tonicity; 2=waddling gait with limp tail (ataxia); 2.5=ataxia with partial limb paralysis; 3=full paralysis of one limb; 3.5=full paralysis of one limb with partial paralysis of second limb; 4=full paralysis of two limbs; 4.5=moribund stage; 5=death. […]

[2] = test system: 3-nitrotyrosine; assay: Nitrotyrosine levels in spinal cords of EAE mice, Western; assay type: in vivo, C57BL/6J mice; details: day 24 post-immunization; GSNO 1 mg/kg/day or FeTPPS 30 mg/kg/day i.p.
Experimental: Western immunoblot analysis was performed by standard method using 50 μg of cell lysates. Following the SDS-PAGE electrophoresis, proteins were transferred from the gel onto the Polyvinylidene fluoride membrane (GE Healthcare Life Sciences, Marlborough, Mass.). […]
EAE was induced as described previously (Nath et al., 2009). […] The group size was determined by power analysis based on our previous data (Nadi et al., 2009). […] Clinical signs of EAE were scored in animal facility in a blinded fashion to experimenter between 2 and 4 pm daily by examiners blinded to experimental treatments using the following scale: 0=no clinical signs of disease; 1=limp tail or waddling gait with tail tonicity; 2=waddling gait with limp tail (ataxia); 2.5=ataxia with partial limb paralysis; 3=full paralysis of one limb; 3.5=full paralysis of one limb with partial paralysis of second limb; 4=full paralysis of two limbs; 4.5=moribund stage; 5=death. […]

[3] = test system: myosin light chain (MLC); assay: Western analysis of MLC phosphorylation (Ser19) in thrombin treated hBMVECs; assay type: cell-based, human; details: thrombin 0.1 unit/ml 5 min; L-NIO or FeTPPS 10 μM; GSNO or SIN-1 various concentrations
Experimental: Cell culture: Primary human brain microvascular endothelial cells (hBMVECs) were purchased from Angio-Proteomie (Cat #: cAP-0002, Atlanta, Ga.). The cells were cultured in cell culture flasks or plates precoated with Quick Coating Solution (Angio-Proteomie; Cat #: cAP-01) and maintained in Endothelial Growth Medium (Angio-Proteomie; Cat #: cAP-02) at 37° C. under 5% CO2/95% air. When the cells were almost confluent, the medium was replaced with endothelial basal medium (Angio-Proteomie; Cat #: cAP-03) containing 0.5% fetal bovine serum (FBS; Life Technologies, Grand Island, N.Y.) about 8-12 hours before the experiment. No institutional approval was required for this study. The study was not pre-registered.
Western immunoblot analysis was performed by standard method using 50 μg of cell lysates. Following the SDS-PAGE electrophoresis, proteins were transferred from the gel onto the Polyvinylidene fluoride membrane (GE Healthcare Life Sciences, Marlborough, Mass.). Membranes were blocked with non-fat dry milk (Santa Cruz Biotechnology) or I-Block™ (ThermoFisher Scientific, Waltham, Mass.) for detection of phospho-proteins and incubated with primary antibodies, such as MBP (Santa Cruz Biotech Cat #: sc13914; RRID: AB_648798), phospho-(Ser^19) MLC (Abeam, Cat #: ab2480; RRID: AB_303094), MLC (Abeam, Cat #: ab79935; RRID:AB_1952220), P-actin (Santa Cruz Biotechnology, Cat #: sc-47778; RRID:AB_2714189), phospho-eNOS (Ser^1177) (Cell Signaling, Cat #: 9571; RRID: AB_329837, Danvers, Mass.), eNOS (Cell Signaling, Cat #: 32027), RhoA (Santa Cruz Biotechnology; Cat #: sc418; RRID: AB_628218) or 3-nitrotyrosine (Abeam, Cat #: ab61392; RRID: AB_942087). Following washing, the membranes were incubated with horseradish peroxidase conjugated secondary antibody (Jackson Immunoresearch Lab, West Grove, Pa.), washed and then incubated with ECL reagent (Amersham Life Science, Pittsbrugh, Pa.), and exposed to Amersham Hyperfilm ECL film

| Compound | efficacy against clinical disease of EAE [1] | EAE-induced nitrotyrosine levels in spinal cords [2] | thrombin-induced MLC phosphorylation [3] |
| --- | --- | --- | --- |
| Cl.O=S(=O)([O-])c1ccc(-c2c3nc(c(-c4ccc(S(=O)(=O)O)cc4)c4ccc([nH]4)c(-c4ccc(S(=O)(=O)O)cc4)c4nc(c(-c5ccc(S(=O)(=O)O)cc5)c5ccc2[nH]5)C=C4)C=C3)cc1.[Fe] [FeTPPS, 5,10,15,20-Tetrakis(4-sulfonatophenyl)porphyrinato Iron (III), Cl, reference compound] | significant efficacy but to a lower degree than GSNO treatment | significantly decreased | inhibited |
| N[C@@H](CCC(=O)N[C@@H](CSN=O)C(=O)NCC(=O)O)C(=O)O [GSNO, S-nitrosoglutathione] | great efficacy | significantly decreased | attenuated |
